Values joined by “and” are separate entries in the source; they are usually repeats but may differ in a detail not shown here. Equal values may be shown once.
Row | SMILES | melting point
1 | CCOCCO [2-ethoxyethanol] | -90 °C
2 | CCOCCOC(C)=O [2-ethoxyethyl acetate] | -62 °C
3 | CCc1ccc2c(c1)C(=O)c1ccccc1C2=O [2-ethylanthraquinone] | 109 °C
4 | C=CC(=O)OCC(CC)CCCC (centres undefined) [2-ethylhexyl acrylate] | -90 °C
5 | CCc1ncc[nH]1 [2-ethylimidazole] | 82 °C
6 | CCc1ccc2ccccc2c1 [2-ethylnaphthalene] | -7.35 °C
7 | O=C(O)c1ccc(C(F)(F)F)cc1F [2-fluoro-4-(trifluoromethyl)benzoic acid] | 168 °C
8 | OCc1ccc(F)c(B(O)O)c1 [2-fluoro-5-(hydroxymethyl)benzeneboronic acid] | 71 °C
9 | N#Cc1cc([N+](=O)[O-])ccc1F [2-fluoro-5-nitrobenzonitrile] | 71 °C
10 | COc1cccc(F)c1B(O)O [2-fluoro-6-methoxybenzeneboronic acid] | 125 °C
11 | N[C@H](Cc1ccccc1F)C(=O)O [2-fluoro-D-phenylalanine] | 210 °C
12 | O=Cc1ccccc1B(O)O [2-formylbenzeneboronic acid] | 118 °C
13 | NNC(=O)c1ccco1 [2-furohydrazide] | 80 °C
14 | CCCCCCCCCCCCCCC(C)O (centres undefined) [2-hexadecanol] | 47 °C
15 | CCCCC(C)=O [2-hexanone] | -56 °C
16 | CC#CCCC [2-hexyne] | -90 °C
17 | OB(O)c1ccccc1O [2-hydroxybenzeneboronic acid] | 185 °C
18 | OCc1ccccc1O [2-hydroxybenzyl alcohol] | 85 °C
19 | O=c1ccc2ccccc2[nH]1 [2-hydroxyquinoline] | 198 °C
20 | O=C(O)CC1Cc2ccccc2C1 [2-indanylacetic acid] | 92 °C
21 | Cn1ccnc1I [2-iodo-1-methylimidazole] | 81 °C
22 | CC(C)(C)I [2-iodo-2-methylpropane] | -38 °C
23 | CCC(C)I (centres undefined) [2-iodobutane] | -104 °C
24 | Oc1ccccc1I [2-iodophenol] [listing 1 of 2 here] | 43 °C and 38.5 °C
25 | Oc1ccccc1I [2-iodophenol] [listing 2 of 2 here] | 40 °C
26 | CC(C)c1ccccc1O [2-isopropylphenol] | 16 °C
27 | Cn1ccnc1S [2-mercapto-1-methylimidazole] | 146 °C

Row | SMILES | melting point
28 | Sc1nc2ccccc2[nH]1 [2-mercaptobenzimidazole] | 303 °C
29 | Sc1nc2ccccc2s1 [2-mercaptobenzothiazole] | 180 °C
30 | [O-][n+]1ccccc1S [2-mercaptopyridine n-oxide] | 71 °C
31 | COc1ccc2ccccc2c1C=O [2-methoxy-1-naphthaldehyde] | 84 °C
32 | COc1cc(C)ccc1O [2-methoxy-4-methylphenol] | 6 °C
33 | COc1ccccc1B(O)O [2-methoxybenzeneboronic acid] | 104 °C
34 | COc1ccccc1C(=O)O [2-methoxybenzoic acid] | 101 °C
35 | COCCOCCOC [2-methoxyethyl_ether] | -64 °C
36 | COc1ccccc1OC(=O)c1ccccc1 [2-methoxyphenyl benzoate] | 59 °C
37 | COc1ccccc1CC#N [2-methoxyphenylacetonitrile] | 68 °C
38 | CC1=CC(=O)c2ccccc2C1=O [2-methyl-1,4-naphthoquinone] | 106 °C
39 | CC1=NC2=CCC=CC2=C1C#N [2-methyl-1H-indole-3-carbonitrile] | 213 °C
40 | CCC(C)(C)O [2-methyl-2-butanol] | -8 °C
41 | CC=C(C)C [2-methyl-2-butene] | -134 °C
42 | CCCCCC(C)(C)O [2-methyl-2-heptanol] | -50 °C
43 | CCCC(C)(C)O [2-methyl-2-pentanol] | -102 °C
44 | CC(C)(C)O [2-methyl-2-propanol] | 26 °C
45 | Cc1ccc(-c2ccccc2)s1 [2-methyl-5-phenylthiophene] | 48 °C
46 | CC1C(=O)CCCC1=O [2-methylcyclohexane-1,3-dione] | 206 °C
47 | CCCCCCC(C)C [2-methyloctane] | -80 °C
48 | CC1CCCCN1 (centres undefined) [2-methylpiperidine] | -4 °C
49 | CCCCCCCCC(CCCCCC)C(=O)O (centres undefined) [2-n-hexyldecanoic acid] | 10 °C
50 | O=C(O)c1ccc2ccccc2c1 [2-naphthoic acid] | 184 °C
51 | Oc1ccc2ccccc2c1 [2-naphthol] [listing 1 of 2 here] | 123 °C and 122 °C
52 | Oc1ccc2ccccc2c1 [2-naphthol] [listing 2 of 2 here] | 122 °C
53 | N#CCc1ccc2ccccc2c1 [2-naphthylacetonitrile] | 83 °C
54 | Cc1cccc(C)c1[N+](=O)[O-] [2-nitro-1,3-dimethylbenzene] | 16 °C

Row | SMILES | melting point
55 | O=[N+]([O-])c1ccccc1C=NO [2-nitrobenzaldoxime] | 100 °C
56 | NC(=O)c1ccccc1[N+](=O)[O-] [2-nitrobenzamide] | 176 °C
57 | N#Cc1ccccc1[N+](=O)[O-] [2-nitrobenzonitrile] | 109 °C
58 | N#CCc1ccccc1[N+](=O)[O-] [2-nitrophenylacetonitrile] | 83 °C
59 | O=[N+]([O-])c1c(O)cccc1O [2-nitroresorcinol] | 83 °C
60 | Cc1ccccc1[N+](=O)[O-] [2-nitrotoluene] | -4 °C
61 | CCCCCCCC(C)=O [2-nonanone] [listing 1 of 2 here] | -15 °C
62 | CCCCCCCC(C)=O [2-nonanone] [listing 2 of 2 here] | -8 °C
63 | Nc1ccccc1Oc1ccccc1 [2-phenoxyaniline] | 47 °C
64 | OCCOc1ccccc1 [2-phenoxyethanol] | 12 °C
65 | BrCCOc1ccccc1 [2-phenoxyethyl bromide] | 33 °C
66 | C=C(C)c1ccccc1 [2-phenyl-1-propene] | -23 °C
67 | CC(C)(O)c1ccccc1 [2-phenyl-2-propanol] | 34 °C
68 | C#CC(C)(O)c1ccccc1 (centres undefined) [2-phenyl-3-butyn-2-ol] | 49 °C
69 | c1ccc(-c2nc3ccccc3[nH]2)cc1 [2-phenylbenzimidazole] | 297 °C
70 | NCCc1ccccc1 [2-phenylethylamine] | -60 °C
71 | Cc1cccc[n+]1[O-] [2-picoline n-oxide] | 48 °C
72 | C=CCc1ccccc1C(=O)O [2-prop-2-en-1-ylbenzoic acid] | 84 °C
73 | CC(C)S [2-propanethiol] | -131 °C
74 | CC(=O)OC1=c2ccccc2=NC1c1ccccn1 (centres undefined) [2-pyridin-2-yl-1H-indol-3-yl acetate] | 130 °C
75 | O=C1OS(=O)(=O)c2ccccc21 [2-sulfobenzoic anhydride] | 120 °C
76 | CCCCCCCCCC(C)O (centres undefined) [2-undecanol] | 2 °C
77 | CN(C)c1ccc(CNC2=CC(=O)c3ccccc3C2=O)cc1 [2-{[4-(dimethylamino)benzyl]amino}naphthalene-1,4-dione] | 166 °C
78 | Cc1ccc(CNC2=CC(=O)c3ccccc3C2=O)nc1 [2-{[(5-methylpyridin-2-yl)methyl]amino}naphthalene-1,4-dione] | 135 °C
79 | O=C1C=C(NCNc2ccccn2)C(=O)c2ccccc21 [2-{[(pyridin-2-ylamino)methyl]amino}naphthalene-1,4-dione] | 135 °C

From the Bradley open melting point set (2014)
